# Assay results taken from patent US7247306B2, “Bacteria strain and bacteriocin produced therefrom” (Universite Laval, priority 2004, dated 2007).
# Marks after values point to notes of the source that are not given here.
# Assays:
# Type in all cases: cell-based
# [1] = system: Carnobacterium divergens; assay: Agar diffusion method, spectrum of activity; parameters: key to Sensitivity to divergicin M35: +, inhibition;; −, no inhibition; settings: strain ATCC 385
# Method: (§1) Bacteria stocks were maintained as 20% glycerol stock, at −80° C., for further use. Carnobacterium sp. and Lactococcus sp. strains were cultivated in MRS broth comprising 0.1% (vol/vol) Tween 80® in aerobic condition at 30° C., as currently known in the art. Listeria monocytogenes and Escherichia coli were grown in tryptic soy broth (TSB), supplemented with 0.6% (wt/vol) yeast extract in aerobic conditions, at 37° C., while Listeria innocua and L. ivanovii were re-cultivated in TSB with yeast extract and incubated aerobically at 30° C. Streptococcus thermophilus, Propionibacterium sp. and pediococci were activated in MRS broth at 37° C. under aerobic condition. All lactobacilli and bifidobacteria were grown in MRS broth supplemented with 0.05% (wt/vol) L-cysteine-hydrochloride and incubated anaerobically in Oxoid jars using an atmosphere generation system, at 37° C. In prior experiments, bacteria strains were sub-cultured at least three times (1%, vol/vol) in respective media at 24 h intervals.
# (§2) The antibacterial activity of bacteriocin produced by C. divergens M35 was tested toward a variety of bacteria species, listed in Table 1, and belonging to genus Listeria, Lactobacillus, Streptococcus, Lactococcus, Propionibacterium and Escherichia, and was evaluated following the agar diffusion method, as is well known to those skilled in the art.
# [2] = system: Carnobacterium piscicola; assay: Agar diffusion method, spectrum of activity; parameters: key to Sensitivity to divergicin M35: +, inhibition;; −, no inhibition; settings: strain ATCC 386
# Method: as §1, §2
# [3] = system: Escherichia coli; assay: Agar diffusion method, spectrum of activity; parameters: key to Sensitivity to divergicin M35: +, inhibition;; −, no inhibition
# Method: as §1, §2
# [4] = system: L. grayi; assay: Agar diffusion method, spectrum of activity; parameters: key to Sensitivity to divergicin M35: +, inhibition;; −, no inhibition; settings: strain LSD 13
# Method: as §1, §2
# [5] = system: L. innocua; assay: Agar diffusion method, spectrum of activity; parameters: key to Sensitivity to divergicin M35: +, inhibition;; −, no inhibition; settings: strain HPB13
# Method: as §1, §2
# [6] = system: L. murayi; assay: Agar diffusion method, spectrum of activity; parameters: key to Sensitivity to divergicin M35: +, inhibition;; −, no inhibition; settings: strain LSD 14
# Method: as §1, §2
# [7] = system: L. seeligeri; assay: Agar diffusion method, spectrum of activity; parameters: key to Sensitivity to divergicin M35: +, inhibition;; −, no inhibition; settings: strain LSD 11
# Method: as §1, §2
# [8] = system: L. welshimeri; assay: Agar diffusion method, spectrum of activity; parameters: key to Sensitivity to divergicin M35: +, inhibition;; −, no inhibition; settings: strain LSD 12
# Method: as §1, §2
# [9] = system: Listeria monocytogenes; assay: Agar diffusion method, spectrum of activity; parameters: key to Sensitivity to divergicin M35: +, inhibition;; −, no inhibition
# Method: as §1, §2
# [10] = system: Bifidobacterium breve; assay: Agar diffusion method, spectrum of activity; parameters: key: +, inhibition;; −, no inhibition; settings: strain ATCC 15700
# Method: as §1, §2
# [11] = system: L. ivanovii; assay: Agar diffusion method, spectrum of activity; parameters: key: +, inhibition;; −, no inhibition
# Method: as §1, §2
# [12] = system: Lactobacillus acidophilus; assay: Agar diffusion method, spectrum of activity; parameters: key: +, inhibition;; −, no inhibition; settings: strain R 0052
# Method: as §1, §2
# [13] = system: Lactobacillus casei; assay: Agar diffusion method, spectrum of activity; parameters: key: +, inhibition;; −, no inhibition; settings: strain R R0256
# Method: as §1, §2
# [14] = system: Lactobacillus delbrueckii subsp. lactis; assay: Agar diffusion method, spectrum of activity; parameters: key: +, inhibition;; −, no inhibition; settings: strain R 0187
# Method: as §1, §2
# [15] = system: Lactobacillus plantarum; assay: Agar diffusion method, spectrum of activity; parameters: key: +, inhibition;; −, no inhibition; settings: strain R 1012
# Method: as §1, §2
# [16] = system: Lactobacillus rhamnosus; assay: Agar diffusion method, spectrum of activity; parameters: key: +, inhibition;; −, no inhibition; settings: strain R 0011
# Method: as §1, §2
# [17] = system: Lactobacillus salivarius; assay: Agar diffusion method, spectrum of activity; parameters: key: +, inhibition;; −, no inhibition; settings: strain R 0078
# Method: as §1, §2
# [18] = system: Lactococcus lactis (subsp. lactis biovar. diacetylactis); assay: Agar diffusion method, spectrum of activity; parameters: key: +, inhibition;; −, no inhibition
# Method: as §1, §2
# [19] = system: Lactococcus lactis (subsp. lactis); assay: Agar diffusion method, spectrum of activity; parameters: key: +, inhibition;; −, no inhibition; settings: strain R0058
# Method: as §1, §2
# [20] = system: Pediococcus acidilactici; assay: Agar diffusion method, spectrum of activity; parameters: key: +, inhibition;; −, no inhibition
# Method: as §1, §2
# [21] = system: Pediococcus pentosaceus; assay: Agar diffusion method, spectrum of activity; parameters: key: +, inhibition;; −, no inhibition; settings: strain R 1044
# Method: as §1, §2
# [22] = system: Propionibacterium freudenreichii; assay: Agar diffusion method, spectrum of activity; parameters: key: +, inhibition;; −, no inhibition; settings: strain R 0501
# Method: as §1, §2
# [23] = system: Propionibacterium sp.; assay: Agar diffusion method, spectrum of activity; parameters: key: +, inhibition;; −, no inhibition; settings: strain P5
# Method: as §1, §2
# [24] = system: Streptococcus thermophilus; assay: Agar diffusion method, spectrum of activity; parameters: key: +, inhibition;; −, no inhibition; settings: strain R 0083
# Method: as §1, §2
# [25] = system: L. innocua HPB13; assay: Critical-dilution micromethod (microtiter plate assay) on purification stages; settings: specific activity at stage ni divided by that of the culture supernatant
# Method: The concentrated bacteriocin was further purified by Reverse-Phase Column Liquid Chromatography (RP-HPLC) using a Beckman Gold System (Beckman Coulter Canada Inc., Mississauga, ON, Canada). Briefly, 100 μl of the concentrated bacteriocin were injected into an analytic C18 reverse-phase column (Luna 5μ, 4.6×250 mm, Phenomenex, Calif., USA). Elution was performed at a flow rate of 1 ml/min using a linear gradient from 90% solvent A (0.1% (wt/vol) trifluoroacetic acid (TFA) prepared in 5% (vol/vol) acetonitrile in water) and 10% solvent B (0.1% TFA in 100% acetonitrile) to 42 and 58% of solvents A and B, respectively, for 46 min. Peptide fractions were detected by spectrophotometry by measuring the absorbance at 220 nm and were collected manually. The fractions were concentrated using a speed-vac concentrator, dissolved in acetate buffer ([…], pH 4.0) and assayed for both bacteriocin activity by the critical-dilution micromethod, and protein content.
# Protein concentration was determined as known in the art. […] Optical densities (650 nm) were then measured using a Thermo-max molecular device spectrophotometer (OPTI-Resources Inc., Quebec, PQ, Canada). […]
# The biological activity of divergicin M35 was determined during the purification procedure by both agar diffusion and critical-dilution methods using L. innocua HPB 13 as indicator strain.
# [26] = system: L. innocua HPB13; assay: Bacteriocin activity during growth of C. divergens M35 in MRS broth, critical-dilution micromethod; settings: 30° C.
# Method: Protein concentration was determined as known in the art. Two-fold serial dilutions of 125 μl of tested sample were transferred into wells with a flat bottom microtest™ polystyrene microplate (96-well microtest, Becton Dickinson Labware, Franklin Lakes, N.J., USA), previously filled with 125 μl tryptic soy broth supplemented with 0.6% yeast extract (wt/vol). Each well was inoculated with 50 μl of 1000-fold diluted overnight culture of L. innocua HPB13 (final concentration of approximately 10^6 cfu/ml) and incubated at 30° C. for 18 h. Optical densities (650 nm) were then measured using a Thermo-max molecular device spectrophotometer (OPTI-Resources Inc., Quebec, PQ, Canada). The bacteriocin activity, expressed in arbitrary units per milliliter (AU/ml), was defined as the highest bacteriocin dilution showing complete inhibition of the indicator strain (optical density equals to that in un-inoculated media).
# A C. divergens M35 culture were diluted (1% vol/vol) in peptone water (0.1%), plated on MRS agar supplemented with 0.1% vol/vol Tween 80® and incubated aerobically at 30° C. for 24 h. Bacterial viable counts, bacteriocin activity and pH were determined at 2 h intervals. Bacteriocin activity was determined according to the critical-dilution micromethod described hereinabove, using 5 ml of culture supernatant, separated by centrifugation and heated at 100° C.
substance,measurement,setting,value
"divergicin M35: class IIa bacteriocin of 43 amino acids, 4518 Da, produced by Carnobacterium divergens strain M35 (SEQ ID NO: 1) (TKYYGNGVYCNSKKCWVDWGTAQGCIDVVIGQLGGGIPGKGKC; listed as Carnobacterium divergens)",Diameter of inhibition zone (mm),[1],15.0 ± 1 mm
same,Sensitivity to divergicin M35,[1],+
same,Diameter of inhibition zone (mm),[2],17.5 ± 1 mm
same,Sensitivity to divergicin M35,[2],+
same,Sensitivity to divergicin M35,[3]; Escherichia coli 22,−
same,Sensitivity to divergicin M35,[3]; Escherichia coli 43,−
same,effect on Gram-negative strains (in words),[3]; Escherichia coli strains tested,not affected
same,Diameter of inhibition zone (mm),[4],15.0 ± 1 mm
same,Sensitivity to divergicin M35,[4],+
same,Diameter of inhibition zone (mm),[5],21 ± 0.5 mm
same,Sensitivity to divergicin M35,[5],+
same,Diameter of inhibition zone (mm),[6],17.5 ± 1 mm
same,Sensitivity to divergicin M35,[6],+
same,Diameter of inhibition zone (mm),[7],13.5 ± 1 mm
same,Sensitivity to divergicin M35,[7],+
same,Diameter of inhibition zone (mm),[8],20 ± 0.5 mm
same,Sensitivity to divergicin M35,[8],+
same,time the antibacterial activity (diameter of the inhibition zone) remained stable,[9]; in every case (sensitive Listeria strains),≥ 36 h
same,number of strains sensitive to divergicin M35,[9]; of the 24 tested strains of L. monocytogenes,22
same,Sensitivity to divergicin M35,[9]; strain ATCC 19111,+
same,Sensitivity to divergicin M35,[9]; strain ATCC 19112,+
same,Sensitivity to divergicin M35,[9]; strain ATCC 19114,+
same,Sensitivity to divergicin M35,[9]; strain ATCC 19115,+
same,Sensitivity to divergicin M35,[9]; strain ATCC 35152,+
same,Sensitivity to divergicin M35,[9]; strain LSD 15,−
same,sensitivity to divergicin M35 (in words),[9]; strain LSD 15,resistant
same,Diameter of inhibition zone (mm),[9]; strain LSD 332,18.5 ± 1 mm
same,Sensitivity to divergicin M35,[9]; strain LSD 332,+
same,Diameter of inhibition zone (mm),[9]; strain LSD 336,16.5 ± 0.5 mm
same,Sensitivity to divergicin M35,[9]; strain LSD 336,+
same,Diameter of inhibition zone (mm),[9]; strain LSD 338,18.0 ± 0.5 mm
same,Sensitivity to divergicin M35,[9]; strain LSD 338,+
same,Diameter of inhibition zone (mm),[9]; strain LSD 339,19.0 ± 0.5 mm
same,Sensitivity to divergicin M35,[9]; strain LSD 339,+
same,Diameter of inhibition zone (mm),[9]; strain LSD 340,17.0 ± 0.5 mm
same,Sensitivity to divergicin M35,[9]; strain LSD 340,+
same,Diameter of inhibition zone (mm),[9]; strain LSD 341,13.0 ± 0.5 mm
same,Sensitivity to divergicin M35,[9]; strain LSD 341,+
same,Diameter of inhibition zone (mm),[9]; strain LSD 346,17.5 ± 1 mm
same,Sensitivity to divergicin M35,[9]; strain LSD 346,+
same,Diameter of inhibition zone (mm),[9]; strain LSD 348,17.5 ± 1 mm
same,Sensitivity to divergicin M35,[9]; strain LSD 348,+
same,Diameter of inhibition zone (mm),[9]; strain LSD 523,10 ± 1^b mm
same,Sensitivity to divergicin M35,[9]; strain LSD 523,+
same,Diameter of inhibition zone (mm),[9]; strain LSD 524,22.0 ± 1^b mm
same,Sensitivity to divergicin M35,[9]; strain LSD 524,+
same,Sensitivity to divergicin M35,[9]; strain LSD 525,−
same,sensitivity to divergicin M35 (in words),[9]; strain LSD 525,resistant
same,Diameter of inhibition zone (mm),[9]; strain LSD 526,21.0 ± 1 mm
same,Sensitivity to divergicin M35,[9]; strain LSD 526,+
same,Diameter of inhibition zone (mm),[9]; strain LSD 529,14.5 ± 0.5 mm
same,Sensitivity to divergicin M35,[9]; strain LSD 529,+
same,Diameter of inhibition zone (mm),[9]; strain LSD 530,19.0 ± 1 mm
same,Sensitivity to divergicin M35,[9]; strain LSD 530,+
same,Diameter of inhibition zone (mm),[9]; strain LSD 531,18.5 ± 1 mm
same,Sensitivity to divergicin M35,[9]; strain LSD 531,+
same,Diameter of inhibition zone (mm),[9]; strain LSD 532,20.0 ± 0.5^b mm
same,Sensitivity to divergicin M35,[9]; strain LSD 532,+
same,Diameter of inhibition zone (mm),[9]; strain LSD 535,19.0 ± 0.5 mm
same,Sensitivity to divergicin M35,[9]; strain LSD 535,+
same,Diameter of inhibition zone (mm),[9]; strain LSD 538,20.0 ± 0.5 mm
same,Sensitivity to divergicin M35,[9]; strain LSD 538,+
same,Sensitivity to divergicin M35,[10],−
same,Sensitivity to divergicin M35,[11]; strain ATCC19119,−
same,Sensitivity to divergicin M35,[11]; strain HPB28,+
same,Sensitivity to divergicin M35,[12],−
same,Sensitivity to divergicin M35,[13],−
same,Sensitivity to divergicin M35,[14],−
same,Sensitivity to divergicin M35,[15],−
same,Sensitivity to divergicin M35,[16],−
same,Sensitivity to divergicin M35,[17],−
same,Sensitivity to divergicin M35,[18]; strain R 0100,−
same,Sensitivity to divergicin M35,[18]; strain UL719,−
same,Sensitivity to divergicin M35,[19],−
same,Sensitivity to divergicin M35,[20]; strain R 1001,−
same,Sensitivity to divergicin M35,[20]; strain UL 5,−
same,Sensitivity to divergicin M35,[21],−
same,Sensitivity to divergicin M35,[22],−
same,Sensitivity to divergicin M35,[23],−
same,Sensitivity to divergicin M35,[24],−
same,Increase in specific Activity (fold),[25],9500 fold
same,biological activity of divergicin M35 in culture,[26]; after 10 h of growth,approximately 18000 AU/ml
same,"biological activity of divergicin M35 in culture, maximum",[26]; after 14 h of growth,65000 AU/ml
